Columns and labels:
[1] = system: T1, BRD4(1)^WT transiently expressed in HEK293T cells; assay: In-cell labeling by clickable probes, in-gel fluorescence; assay type: cell-based, human; conditions: 10 μM probe, 1 h
T1 construct: the first bromodomain of BRD4 [BRD4(1)]; StrepII; expressed in transfected cells; host or cells: HEK293T
Description: To evaluate proteome-wide selectivity of the clickable probes, HEK293T cells transiently expressing BRD4(1)^L94C or BRD4(1)^WT were incubated with 10 μM of probes 28–30 and 42 for 1 h before the cells were lysed and the CuAAC reaction with TAMRA-PEG3-azide was conducted (Figure 7A). […]
(§1) reaction mix was taken and 8 µL of Lamelli buffer added, and the samples denatured by heating at 95 °C for 10 min. Samples were separated by gel electrophoresis on NuPAGE™ 4–12%, Bis-Tris precast polyacrylamide gels (Thermofisher). Following electrophoresis, gels were stained for 15 min with InstantBlueTM Coomasie® stain (Abcam), destained, and imaged using Bio-rad molecular imager.
(§2) Bio-rad Image Lab 6.1 was used to process the data.
(§3) In-cell target engagement
(§4) In-cell labeling by clickable probes
(§5) Transfected HEK293T cells at ~90% confluency were incubated for 1 h with a DMSO control (0.5% DMSO final concentration) or a click probe (10 µM, 0.5% DMSO final concentration) diluted in Opti- […]
Cells were then harvested and lysed using the previously described protocol above. The resulting cell lysates were diluted to 2 mg/mL using the previously described protocol above.
Cell lysates (50 µL) were then incubated with TAMRA-PEG3-Azide (200 µM), TCEP·HCl (2 mM), TBTA (200 µM), and CuSO4 (2 mM), for 1 h at rt in the dark. Samples were then prepared and separated by gel electrophoresis using the previously described protocol above.
Gels were imaged for fluorescence using Bio-rad molecular imager and then stained for 15 min with InstantBlueTM Coomasie® stain (Abcam), destained, and imaged using Bio-rad molecular imager.
Typically, the very bottom of the gel was removed prior to imaging due to residual, unreacted, TAMRA-PEG3-Azide, which would cause oversaturation and poor image quality. […]
MEM media. Cells were then harvested and lysed using the previously described protocol above. […]

[2] = system: T2, BRD4(1)^L94C transiently expressed in HEK293T cells; assay: OXFBD04 (3) competition assay in cells; assay type: cell-based, human; conditions: OXFBD04 30 min preincubation, then probe 10 µM for 1 h
T2 construct: the L94C mutation in the first bromodomain of BRD4 [BRD4(1)]; StrepII; expressed in transfected cells; host or cells: HEK293T
Description: (§6) Compound engagement with BRD4(1)^L94C was further validated by using an immunoprecipitation (IP) assay (Figure S22). Here, transfected HEK293T cells expressing StrepII-tagged BRD4(1)^L94C or StrepII-tagged BRD4(1)^WT were incubated with compound 42 before being lysed. The StrepII-tagged bromodomains were then pulled down using anti-StrepII antibodies, and the samples were separated by SDS-PAGE for analysis. […]
as §1, §2, §3
(§7) In-cell labeling by clickable probes […]
(§8) Gels were imaged for fluorescence using Bio-rad molecular imager and then stained for 15 min with InstantBlueTM Coomasie® stain (Abcam), destained, and imaged using Bio-rad molecular imager. […]
(§9) Transfected HEK293T cells at ~90% confluency were incubated for 30 min with a DMSO control or varying concentrations of OXFBD04 diluted in Opti-MEM media. […] Cells were then harvested, processed, and analysed using the previously described protocol above. […]

[3] = system: T3, StrepII-tagged BRD4(1)^L94C or BRD4(1)^WT in HEK293T cells; assay: Immunoprecipitation of StrepII-tagged bromodomains after in-cell labeling; assay type: cell-based, human; conditions: 10 µM probe, 1 h, anti-StrepII pull-down, in-gel fluorescence
T3 construct: the L94C mutation in the first bromodomain of BRD4 [BRD4(1)]; StrepII; expressed in transfected cells; host or cells: HEK293T
Description: as §6, §1, §2, §3, §7, §8, §9

[4] = target: BRD4(1,2)^WT transiently expressed in HEK293T cells (Homo sapiens, UniProt O60885); assay: In-cell labeling of tandem bromodomain; assay type: cell-based
Description: as §1, §2, §3, §4, §5
Cells were then harvested and lysed using the previously described protocol above. The resulting cell lysates were diluted to 2 mg/mL using the previously described protocol above. […]
as §8, §9

Structure (SMILES)	In-cell labeling of BRD4(1)^WT (fluorescent band ∼49 kDa) [1]	BRD4(1)^L94C labeling by probe with increasing concentration of OXFBD04 (3) [2]	Engagement of StrepII-tagged BRD4(1)^L94C versus BRD4(1)^WT by immunoprecipitation [3]	In-cell covalent engagement with BRD4(1,2)^WT [4]
C#CCOc1ccc(-c2c(C)noc2NC(=O)C=C)cc1 [Compound 30]	not visible	concomitant reduction		
C#CCOc1cc(NC(=O)C=C)ccc1N1CCCC1=O [Compound 42]		decreased levels	selective engagement of BRD4(1)^L94C	no covalent engagement

From publication PMC10660337, “Mutate and Conjugate: A Method to Enable Rapid In-Cell Target Validation” (ACS Chemical Biology, 2023)
